The text below walks through data of patent US20080027076A1, “Pyrimidines With Tie2 (Tek) Activity” (ASTRAZENECA AB, priority 2003, published 2008).

Test [1] concerns the target T1, Tie2 receptor tyrosine kinase (Homo sapiens, UniProt Q02763).
T1 construct: consist of only the intracellular portion C-terminal portion of the respective receptor, within which is found the kinase domain; made in house; host or cells: baculovirus/Sf21 insect cells (cleared lysate used)
Briefly: In vitro receptor tyrosine kinase inhibition assay (ELISA based, Test (a)). Format: biochemical. As to conditions: recombinant human Tie2 kinase domain lysate, synthetic peptide substrate. As for the experimental part: a. In Vitro Receptor Tyrosine Kinase Inhibition Assay
To test for inhibition of Tie2 receptor tyrosine kinase, compounds are evaluated in a non-cell based protein kinase assay by their ability to inhibit the protein kinase enzyme phosphorylation of a tyrosine containing polypeptide substrate in an ELISA based microtitre plate assay. In this particular case, the assay was to determine the IC50, for three different recombinant human tyrosine kinases Tie2, KDR and Flt.
To facilitate production of the tyrosine kinases, recombinant receptor genes were produced using standard molecular biology cloning and mutagenesis techniques. These recombinant proteins fragments encoded within these genes consist of only the intracellular portion C-terminal portion of the respective receptor, within which is found the kinase domain. The recombinant genes encoding the kinase domain containing fragments were cloned and expressed in standard baculovirus/Sf21 system (or alternative equivalent). […]
Constitutive kinase activity of these recombinant proteins was determined by their ability to phosphorylate a synthetic peptide (made up of a random co-polymer of Glutamic Acid, Alanine and Tyrosine in the ratio of 6:3:1). […]
The immobilised phospho-peptide product of the reaction was detected by immunological methods. […] Following extensive washing with PBS-T, HRP activity in each well of the plate was measured colorimetrically using 22′-Azino-di-[3-ethylbenzthiazoline sulfonate (6)] diammonium salt crystals ABTS (Sigma P4922-prepared as per manufactures instructions) as a substrate incubated for 30-45 minutes to allow colour development, before 100 ul of 1M H2SO4 was added to stop the reaction.
Quantification of colour development and thus enzyme activity was achieved by the measurement of absorbance at 405 nm on a Molecular Devices ThermoMax microplate reader. Kinase inhibition for a given compound was expressed as an IC50 value. […] The range of phosphorylation was calculated from the positive (vehicle plus ATP) and negative (vehicle minus ATP) control values.
For orientation: ELISA stands for enzyme-linked immunosorbent assay.

Test [2] deals with T2, Tie2 receptor (Homo sapiens, UniProt Q02763).
T2 construct: one can use natural cell lines or primary cells which are known to express the receptor of choice; endogenous in cells; host or cells: EA.hy926/B3 cells
T2 sequence (Q02763 23-1124): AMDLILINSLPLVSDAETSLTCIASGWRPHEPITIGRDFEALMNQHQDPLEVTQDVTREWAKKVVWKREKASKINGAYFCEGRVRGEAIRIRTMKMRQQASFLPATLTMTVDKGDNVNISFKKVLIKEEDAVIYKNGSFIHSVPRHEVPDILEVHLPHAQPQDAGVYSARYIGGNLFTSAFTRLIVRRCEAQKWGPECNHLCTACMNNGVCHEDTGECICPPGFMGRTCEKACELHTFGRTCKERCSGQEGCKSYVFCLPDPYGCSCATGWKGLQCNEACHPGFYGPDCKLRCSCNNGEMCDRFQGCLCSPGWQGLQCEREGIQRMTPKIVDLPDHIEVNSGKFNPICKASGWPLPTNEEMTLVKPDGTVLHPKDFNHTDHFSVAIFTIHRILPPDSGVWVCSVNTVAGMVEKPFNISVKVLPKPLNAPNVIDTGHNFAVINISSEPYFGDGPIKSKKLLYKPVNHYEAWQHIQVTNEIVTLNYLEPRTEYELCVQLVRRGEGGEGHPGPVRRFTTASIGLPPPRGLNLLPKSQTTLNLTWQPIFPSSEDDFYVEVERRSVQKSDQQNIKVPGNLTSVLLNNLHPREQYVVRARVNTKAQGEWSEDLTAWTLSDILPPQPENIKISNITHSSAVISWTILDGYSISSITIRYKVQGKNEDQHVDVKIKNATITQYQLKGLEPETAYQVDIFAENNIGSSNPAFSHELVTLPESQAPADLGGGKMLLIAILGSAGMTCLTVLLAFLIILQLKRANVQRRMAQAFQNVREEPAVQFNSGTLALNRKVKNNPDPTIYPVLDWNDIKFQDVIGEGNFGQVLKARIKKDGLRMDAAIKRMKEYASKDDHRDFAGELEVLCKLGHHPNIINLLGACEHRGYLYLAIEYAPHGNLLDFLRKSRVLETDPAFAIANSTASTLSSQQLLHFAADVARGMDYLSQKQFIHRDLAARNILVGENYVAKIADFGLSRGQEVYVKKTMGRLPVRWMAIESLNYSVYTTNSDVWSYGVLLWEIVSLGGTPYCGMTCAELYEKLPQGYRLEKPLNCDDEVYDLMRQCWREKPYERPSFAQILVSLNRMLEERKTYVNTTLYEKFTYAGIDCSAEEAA
The experiment in a line: Cellular Tie2 autophosphorylation assay (Test (b)). Format: cell-based. As to conditions: Ang1 ligand stimulated cellular Tie2 receptor, e.g. EA.hy926/B3 cells; read-out: IC50 Test (b): Inhibition of autophosphorylation of Tie2 receptor tyrosine kinase. The source says: b. Cellular Tie2 Autophosphorylation Assay
This assay is based on measuring the ability of compounds to inhibit autophosphorylation of the Tie2 receptor which normally leads to the production of “activated” receptor that in turn initiates the particular signal transduction pathways associated with the receptor function.
Autophosphorylation can be achieved by a number of means. It is known that expression of recombinant kinase domains in baculoviral systems can lead to the production of phosphorylated and activated receptor. It is also reported that over expression of receptors in recombinant cell lines can itself lead to receptor autophosphorylation in the absence of the ligand (Heldin C-H. 1995 Cell : 80, 213-223; Blume-J. P, Hunter T. 2001 Nature: 411, 355-65). Furthermore, there are numerous literature examples in which chimaeric receptors have been constructed. In these cases the natural, external cell surface domain of the receptor has been replaced with that of a domain which is known to be readily dimerised via the addition of the appropriate ligand (e.g. TrkA-Tie2/NGF ligand (Marron, M. B., et al., 2000 Journal of Biological Chemistry: 275:39741-39746) or C-fms-Tie-1/CSF-1 ligand (Kontos, C. D., et al., 2002 Molecular and Cellular Biology: 22, 1704-1713). Thus when the chimaeric receptor expressed in a host cell line and the respective ligand is added, this induces autophosphorylation of the chimeric receptor's kinase domain. This approach has the advantage of often allowing a known (and often easily obtained) ligand to be used instead of having to identify and isolate the natural ligand for each receptor of interest.
Naturally if the ligand is available one can use natural cell lines or primary cells which are known to express the receptor of choice and simply stimulate with ligand to achieve ligand induced phosphorylation. […]

T1 sequence (Q02763 770-1124 limits assumed): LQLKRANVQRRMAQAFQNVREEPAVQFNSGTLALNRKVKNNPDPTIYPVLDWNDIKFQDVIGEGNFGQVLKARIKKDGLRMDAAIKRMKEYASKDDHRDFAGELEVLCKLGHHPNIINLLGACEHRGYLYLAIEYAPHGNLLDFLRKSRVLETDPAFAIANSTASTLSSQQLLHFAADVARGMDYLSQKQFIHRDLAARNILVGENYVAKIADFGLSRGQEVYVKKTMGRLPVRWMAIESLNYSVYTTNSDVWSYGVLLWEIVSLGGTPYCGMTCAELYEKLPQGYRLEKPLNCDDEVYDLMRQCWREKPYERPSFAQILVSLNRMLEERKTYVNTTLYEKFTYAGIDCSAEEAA

The IC50 is the concentration at which inhibition is half-maximal. Turning to `CC(C)(C)c1nnc(NC(=O)Nc2ccc(C#Cc3c(N)ncnc3N)cc2)s1` [Example 11, N-(5-tert-butyl-1,3,4-thiadiazol-2-yl)-N′-{4-[(4,6-diaminopyrimidin-5-yl)ethynyl]phenyl}urea], the IC50 turned out to be 879 nM in test [1] and 5560 nM in test [2].
On the same counts, the results for `Cc1cc(NC(=O)Nc2ccc(C#Cc3c(N)ncnc3N)cc2)sn1` [Example 12, N-{4-[(4,6-diaminopyrimidin-5-yl)ethynyl]phenyl}-N′-(3-methylisothiazol-5-yl)urea] are 2850 nM and 351 nM.
On to `Cc1cc(NC(=O)Nc2cccc(C#Cc3c(N)ncnc3N)c2)on1` [Example 19, N-{3-[(4,6-diaminopyrimidin-5-yl)ethynyl]phenyl}-N′-(3-methylsoxazol-5-yl)urea], for which the IC50 came to 2140 nM in test [1] and 3540 nM in test [2].
